Reference: patent publication US8557811B2, “Dual-color imaging method of sodium/calcium activities using two-photon fluorescent probes and preparation method of two-photon fluorescent probes” (Ajou University Industry—Academic Cooperation Foundation, priority 2010, dated 2013)
“And” between values parts separate entries of the source, which are not always exact repeats. Identical values can stand only once.

Tests used:
[1] = Spectroscopic measurements (absorption, emission, fluorescence quantum yield); format: physicochemical; details: for Φ fluorescence photon efficiency: error range ±10%
Experimental: Absorption spectra were measured using a Hewlett-Packard 8453 diode array spectrophotometer, and fluorescence spectra were measured using an Amico-Bowman series 2 emission spectrometer having 1 cm standard quartz cell. Fluorescence quantum yield was determined using coumarin 307 (Φ=0.95 in MeOH) according to a previously known method.
Normalized absorption spectra of BCa1 in 1,4-dioxane, EtOH, DMF and H2O are shown in FIG. 2 (a), and normalized emission spectra of BCa1 in 1,4-dioxane, EtOH, DMF and H2O are shown in FIG. 2 (b).

[2] = Fluorescence response of ANa1 to Na+ in buffer; format: binding
[3] = Two-photon absorption cross section by femtosecond fluorescence spectroscopy; format: physicochemical; details: for λ^(2)max two-photon excitation wavelength: with cation (BCa1 + Ca2+, ANa1 + Na+); for δΦ two-photon operational cross section: with cation (BCa1: MOPS buffer with excess Ca2+; ANa1 + Na+), error range ±15%
Experimental: Two-photon operational emission δΦ of BCa1 in the MOPS buffer containing excess Ca^2+ was 150 GM at 780 nm, 3- to 5-fold improved over Calcium-Green-Ca^2+ or Fura-2-Ca^2+ (see FIG. 7). Thus, it can be seen that staining of cells with BCa1 can provide brighter TPM images as compared to other commercially available probes.
TPA cross section (6) was measured by femtosecond (fs) fluorescence spectroscopy. BCa1 was dissolved in 30 mM MOPS buffer (2.5 mM CaCl2, 100 mM KCl, pH 7.2) to a concentration of 5.0×10^−6 M, and two-photon excited fluorescence (TPEF) was measured at 740 to 940 nm using fluorescein (8.0×10^−6M, pH=11). TPEF intensity of reference and sample was determined at the same excitation wavelength. TPA cross section was calculated by Equation 1. δ=δr(Ssφrfrcr)/(Srφsfscs) [Equation 1]
In Equation 1, s and r respectively stand for sample and reference molecules, S represents the intensity of a signal collected by the CCD detector, Φ represents the fluorescence quantum yield, f represents the overall fluorescence collection efficiency of the experimental apparatus, c represents molecular density in the solution, and δr represents the TPA cross section of reference molecules.

[4] = Two-photon measurement in BCa1-labeled HeLa cells; format: cell-based
Experimental: HeLa cells were cultured in Dulbecco's modified Eagle's medium (DMEM; Gibco) supplemented with heat-inactivated 10% (v/v) fetal bovine serum (FBS; Gibco), 100 units/mL penicillin and 100 μg/mL streptomycin. The cells were grown under a humidified environment at 37° C. with air/CO2=95:5. Four days before imaging, the cells were harvested with a trypsin-EDTA solution and were transferred to a glass-bottomed dish (MatTek) with […]. The cells were treated at 37° C. for 20 minutes with 2 μM ANa1, and then loaded with 0.5 μM BCa1 at room temperature. 10 minutes later, the cells were imaged after washing 2 times with a reduced calcium-balanced salt solution (RCBSS; 127 mM NaCl, 3.8 mM KCl, 1.2 mM KH2PO4, 0.8 mM MgCl2, 5 mM glucose and 10 mM HEPES buffer).
Two-photon fluorescence microscopic images of the probe-labeled HeLa cells and tissues were obtained using spectral confocal and multiphoton microscopes (Leica TCS SP2).

[5] = One-photon fluorescence of BCa1 with free Ca2+ in LUVs; format: binding; details: LUVs of DOPC/sphingomyelin/CHL (1:1:1, raft mixture), free Ca2+ 2.5 mM, 25±0.5° C.
Experimental: LUVs for the measurement of one-photon and two-photon spectra were prepared from a hydrated suspension of multilamellar vesicles by means of extrusion. Lipids were dissolved in CHCl3/MeOH (95/5 vol %) and then dried under N2 flow in vacuum. The resulting film was hydrated in MOPS buffer (30 mM MOPS, 100 mM KCl, pH 7.2) by shaking at 60° C. until the suspension became homogeneous. The mixture was subjected to 3 freeze-thaw cycles, and LUVs were extruded therefrom by passing through a membrane having 100 nm pores (Avanti Polar Lipids). To stain the vesicles, BCa1 dissolved in DMSO was added and then 30 minutes was allowed to pass. The proportion of the vesicles to the probe was 300:1. Temperature was measured using a digital thermometer having a precision of 0.1° C.
One-photon fluorescence spectra of complexes of free Ca^2+ (0 to 2.5 mM) and 1 μM BCa1 for LUVs composed of DOPC/sphingomyelin/cholesterol (1:1:1, raft mixture) are shown in FIG. 8 (a), and Hill curves are shown in FIG. 8 (b).
Normalized emission spectra of BCa1 containing free Ca^2+ (2.5 mM) in LUVs composed of DPPC/CHL (black curve), DOPC/sphingomyelin/CHL (1:1:1, raft mixture, blue curve) and DOPC (pink curve) at 25±0.5° C. are shown in FIG. 9 (a), and normalized emission spectra of BCa1 in HeLa cells are shown in FIG. 9 (b). […]

[6] = Water solubility from fluorescence intensity versus dye concentration; format: physicochemical; details: H2O with DMSO at 0.20; highest concentration in the linear region; excitation 360 nm
Experimental: A stock solution (1.0×10^−2M) was prepared by dissolving the dye (BCa1) in DMSO. The solution was diluted (to 6.0×10^−3 to 6.0×10^−5 M) and transferred to a cuvette holding H2O (3.0 mL) using a microsyringe. In all cases, the concentration of DMSO in H2O was maintained at 0.20. […] The highest concentration in the linear region was determined as the solubility of BCa1, which was about 5.0 μM in water, being sufficient to stain cells.
One-photon fluorescence spectra of BCa1 are shown in FIG. 1 (a), and the fluorescence intensity of BCa1 in H2O depending on concentrations is shown in FIG. 1 (b). Excitation wavelength was 360 nm.

[7] = Fluorescence titration with free Ca2+ in MOPS buffer (one-photon and two-photon); format: binding
Experimental: This is caused by the blocking of photo-induced electron transfer (PET) resulting from complexation with the metal ions.
One-photon absorption curves of 1 μM BCa1 (30 mM MOPS, 100 mM KCl, pH 7.2) complex in the presence of free Ca^2+ are shown in FIG. 5 (a), one-photon and two-photon fluorescence titration curves are shown in FIG. 5 (b), and one-photon and two-photon Hill curves are shown in FIG. 5 (c).
The dissociation constants of BCa1 for the one-photon and two-photon processes (K^OPd and K^TPd) were calculated from the fluorescence titration curves of FIG. 5 (b).

[8] = Effect of pH on one-photon fluorescence intensity; format: physicochemical
Experimental: (§1) Relative fluorescence intensity of 1 μM BCa1 for various cations are shown in FIG. 6 (a), and the effect of pH on one-photon fluorescence intensity of BCa1 is shown in FIG. 6 (b). […] Thus, the probe allows selective detection of Ca^2+ without minimized interference from other biologically relevant cations.

[9] = Relative fluorescence intensity for various cations; details: 1 μM BCa1
Experimental: as §1

[10] = in MeOH; cited from earlier work
[11] = with cation (BCa1 + Ca2+, ANa1 + Na+)
[12] = two-photon process (value in parentheses)

| Compound | λ^(1)max one-photon absorption wavelength ([1]; probe without added cation) | λ^flmax one-photon emission wavelength ([1]; probe without added cation) | Φ fluorescence photon efficiency ([1]; probe without added cation) | λ^(1)max one-photon absorption wavelength [1, 11] | λ^flmax one-photon emission wavelength [1, 11] | Φ fluorescence photon efficiency [1, 11] | FEF fluorescence enhancement factor (F − Fmin)/Fmin ([2]; one-photon process) | FEF fluorescence enhancement factor (F − Fmin)/Fmin [2, 12] | λ^(2)max two-photon excitation wavelength [3] | δΦ two-photon operational cross section [3] | maximum emissions of the two Gaussian curves fitted to the emission spectrum [4] | maximum emissions of the two Gaussian curves fitted to the emission spectrum [5] | solubility of BCa1 in water [6] | FEF fluorescence enhancement factor (F − Fmin)/Fmin ([7]; one-photon process) | FEF fluorescence enhancement factor (F − Fmin)/Fmin [7, 12] | effect of pH on one-photon fluorescence intensity [8] | fluorescence response to Fe^2+, Cu^2+ and Co^2+ [9] | fluorescence response to Mg^2+, Zn^2+ and Mn^2+ [9] | Φ fluorescence quantum yield of the reference [10] |
| --- | --- | --- | --- | --- | --- | --- | --- | --- | --- | --- | --- | --- | --- | --- | --- | --- | --- | --- | --- |
| COc1ccccc1N1CCOCCOCCN(c2ccc(NC(=O)CN(C)c3ccc4cc(C(C)=O)ccc4c3)cc2OC)CCOCC1 [ANa1, reference compound] | 367 nm | 500 nm | 0.08 | 367 nm | 500 nm | 0.65 | 8(8) | 8(8) | 780 nm | 95 GM |  |  |  |  |  |  |  |  |  |
| CN(CC(=O)Nc1ccc(N(CC(=O)O)CC(=O)O)c(OCC(=O)N2CCOCC2)c1)c1ccc2cc(-c3nc4ccccc4o3)ccc2c1 [BCa1] | 360 nm | 470 nm | 0.07 | 360 nm | 470 nm | 0.98 |  |  | 780 nm | 150 GM | 430 nm and 460 nm | 436 nm and 467 nm | about 5.0 μM | 13 | 14 | not affected by pH | no response at all | weak responses |  |
| CCNc1cc2oc(=O)cc(C(F)(F)F)c2cc1C [coumarin 307] |  |  |  |  |  |  |  |  |  |  |  |  |  |  |  |  |  |  | 0.95 |
